Results on 13 compounds are retold here after patent US20210032253A1, “PYRAZOLO[1,5-A][1,3,5]TRIAZINE-2-AMINE DERIVATIVE, PREPARATION METHOD THEREFOR AND MEDICAL USE THEREOF” (JIANGSU HENGRUI MEDICINE CO., LTD., priority 2018, published 2021).

One may read the IC50 as the point on the concentration scale where inhibition reaches its midpoint. High values mean weaker potency in that assay, low ones greater potency in that assay.

What all share (format): cell-based
The target of assay [1] is T1, adenosine A2a receptor (A2aR) (Homo sapiens, UniProt P29274).
T1 construct: expressed in transfected cells; host or cells: CHO-K1
Briefly: Inhibition of adenosine A2a receptor cAMP signaling pathway in CHO-K1/A2aR cells (HTRF cAMP dynamic 2 kit). To be noted: Table 1, 20 nM ethylcarbazole. From the text:
(§1) Test Example 1. Determination of the inhibitory activities of the compounds of the present disclosure on the adenosine A2a receptor (A2aR) cAMP signaling pathway, the adenosine A1 receptor (A1R) cAMP signaling pathway and the adenosine A3 receptor (A3R) cAMP signaling pathway.
(§2) The inhibitory activities of the compounds of the present disclosure on the adenosine A2a receptor (A2aR) cAMP signaling pathway, the adenosine A1 receptor cAMP signaling pathway and the adenosine A3 receptor cAMP signaling pathway were determined by the following methods. The experimental method is briefly described as follows:
CHO-K1/A2aR cells were cultured in DMEM/F12 medium containing 10% fetal bovine serum and 800 μg/mL Zeocin™. The cells were digested with the cell dissociation buffer during the experiment. The cells were resuspended in the HBSS buffer containing 20 mM HEPES and 0.1% bovine serum albumin and counted, and the cell density was adjusted to 10^6 cells/mL. In 384-well plates, each well was added with 5 μL of the cell suspension, and 2.5 µL of test compounds (4× concentration) formulated with the HBSS buffer containing 20 mM HEPES, 0.1% bovine serum albumin, 54 μM rolipram and 2.7 U/mL adenosine deaminase, and the plates were incubated at room temperature for 30 minutes. Each well was then added with 2.5 μL of ethylcarbazole (4× concentration) formulated with the balanced salt buffer containing 20 mM HEPES, 0.1% bovine serum albumin, 54 μM rolipram and 2.7 U/mL adenosine deaminase, and the plates were incubated at room temperature for 30 minutes. The final concentrations of the compounds were: 10000, 2000, 400, 80, 16, 3.2, 0.64, 0.128, 0.0256, 0.00512, and 0.001024 nM. The final concentration of ethylcarbazole was 20 nM. Intracellular cAMP concentration was determined with cAMP dynamic 2 kits. cAMP-d2 and Anti-cAMP—Eu-Cryptate were diluted respectively with the cAMP lysis buffer at a ratio of 1:4. Each well was added with 5 μL of the diluted cAMP-d2, followed by addition of 5 μL of the diluted Anti-cAMP—Eu-Cryptate, and the plates were incubated at room temperature in the dark for 1 hour. The HTRF signal values were read by the PHERAstar multi-function microplate reader.
(In general: In TR-FRET formats the signal depends on donor and acceptor labels being close together.)

The target in assay [2] is T2, adenosine A1 receptor (A1R) (Homo sapiens, UniProt P30542).
T2 construct: expressed in transfected cells; host or cells: CHO-K1
T2 sequence (P30542 1-326): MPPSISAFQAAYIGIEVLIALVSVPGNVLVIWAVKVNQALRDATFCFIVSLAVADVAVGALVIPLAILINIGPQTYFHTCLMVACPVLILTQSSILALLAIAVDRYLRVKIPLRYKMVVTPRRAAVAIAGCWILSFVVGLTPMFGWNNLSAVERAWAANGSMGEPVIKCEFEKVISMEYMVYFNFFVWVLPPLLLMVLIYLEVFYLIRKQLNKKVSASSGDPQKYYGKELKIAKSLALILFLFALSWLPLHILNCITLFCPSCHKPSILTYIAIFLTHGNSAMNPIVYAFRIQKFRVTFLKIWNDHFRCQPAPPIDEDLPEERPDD
Briefly: Inhibition of adenosine A1 receptor cAMP signaling pathway in CHO-K1/A1R cells (HTRF cAMP dynamic 2 kit). To be noted: Table 2; for IC50: CHO-K1/A1R cells, cAMP, 10 μM forskolin, 10 nM CPA; for IC50 ratio (A1R/A2aR): selectivity A1R over A2aR.
Description: as §1, §2
CHO-K1/A1R cells were cultured in DMEMIF12 medium containing 10% fetal bovine serum and 1 mg/mL G418. The cells were digested with the cell dissociation buffer during the experiment. The cells were then resuspended in the HBSS buffer containing 20 mM HEPES and 0.1% bovine serum albumin and counted, and the cell density was adjusted to 5×10^5 cells/mL. In 384-well plates, each well was added with 12.5 μL of the cell suspension, and 6.25 μL of the test compounds (4× concentration) formulated with the HBSS buffer containing 20 mM HEPES, 0.1% bovine serum albumin, 54 μM rolipram and 2.7 U/mL adenosine deaminase, and the plates were incubated at room temperature for 30 minutes. Each well was then added with 6.25 μL of forskolin and N6-cyclopentyladenosine (4× concentration) formulated with the HBSS buffer containing 20 mM HEPES, 0.1% bovine serum albumin, 54 μM rolipram and 2.7 U/mL adenosine deaminase, and the plates were incubated at room temperature for 30 minutes. The final concentrations of the compounds were: 100000, 10000, 1000, 100, 10, 1, 0.1 and 0 nM. The final concentration of forskolin was 10 μM. The final concentration of CPA was 10 nM. Intracellular cAMP concentration was determined with cAMP dynamic 2 kits. cAMP-d2 and Anti-cAMP—Eu-Cryptate were diluted respectively with the cAMP lysis buffer at a ratio of 1:4. Each well was added with 12.5 μL of the diluted cAMP-d2, followed by addition of 12.5 μL of the diluted Anti-cAMP—Eu-Cryptate, and the plates were incubated at room temperature in the dark for 1 hour. The HTRF signal values were read by the PHERAstar multi-function microplate reader.

For assay [3], the target named is T3, adenosine A3 receptor (A3R) (Homo sapiens, UniProt P0DMS8).
T3 construct: expressed in transfected cells; host or cells: CHO-K1
T3 sequence (P0DMS8 1-318): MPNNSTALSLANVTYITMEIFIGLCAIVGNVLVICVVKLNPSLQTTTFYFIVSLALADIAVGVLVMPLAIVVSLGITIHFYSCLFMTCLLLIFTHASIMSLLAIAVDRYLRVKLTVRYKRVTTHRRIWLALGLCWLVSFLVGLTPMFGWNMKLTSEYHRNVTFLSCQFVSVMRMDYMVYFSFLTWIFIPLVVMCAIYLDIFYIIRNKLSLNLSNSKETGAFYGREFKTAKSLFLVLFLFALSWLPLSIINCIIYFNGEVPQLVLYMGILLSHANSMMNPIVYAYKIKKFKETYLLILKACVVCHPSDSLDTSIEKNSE
In words: Inhibition of adenosine A3 receptor cAMP signaling pathway in CHO-K1/A3R cells (HTRF cAMP dynamic 2 kit). To be noted: Table 3; for IC50: CHO-K1/A3R cells, cAMP, 10 μM forskolin, 5 nM 2Cl-IB-MECA; for IC50 ratio (A3R/A2aR): selectivity A3R over A2aR.
Description: as §1, §2
CHO-K1/A3R cells were cultured in DMEMIF12 medium containing 10% fetal bovine serum and 10 μg/mL puromycin. The cells were digested with the cell dissociation buffer during the experiment. The cells were resuspended in the HBSS buffer containing 20 mM HEPES and 0.1% bovine serum albumin and counted, and the cell density was adjusted to 5×10^5 cells/mL. In 384-well plates, each well was added with 12.5 μL of the cell suspension, and 6.25 μL of the test compounds (4× concentration) formulated with the HBSS buffer containing 20 mM HEPES, 0.1% bovine serum albumin, 54 μM rolipram and 2.7 U/mL adenosine deaminase, and the plates were incubated at room temperature for 30 minutes. Each well was then added with 6.25 μL of forskolin and 2Cl-IB-MECA (4× concentration) formulated with the HBSS buffer containing 20 mM HEPES, 0.1% bovine serum albumin, […] rolipram and 2.7 U/mL adenosine deaminase, and the plates were incubated at room temperature for 30 minutes. The final concentrations of the compounds were: 100000, 10000, 1000, 100, 10, 1, 0.1 and 0 nM. The final concentration of forskolin was 10 μM. The final concentration of 2Cl-IB-MECA was 5 nM. Intracellular cAMP concentration was determined with cAMP dynamic 2 kits. cAMP-d2 and Anti-cAMP—Eu-Cryptate were diluted respectively with the cAMP lysis buffer at a ratio of 1:4. Each well was added with 12.5 μL of the diluted cAMP-d2, followed by addition of 12.5 μL of the diluted Anti-cAMP—Eu-Cryptate, and the plates were incubated at room temperature in the dark for 1 hour. The HTRF signal values were read by the PHERAstar multi-function microplate reader. IC50 values for the inhibitory activities of the compounds were calculated by Graphpad Prism software, and are shown in Table 3.

T1 sequence (P29274 whole entry): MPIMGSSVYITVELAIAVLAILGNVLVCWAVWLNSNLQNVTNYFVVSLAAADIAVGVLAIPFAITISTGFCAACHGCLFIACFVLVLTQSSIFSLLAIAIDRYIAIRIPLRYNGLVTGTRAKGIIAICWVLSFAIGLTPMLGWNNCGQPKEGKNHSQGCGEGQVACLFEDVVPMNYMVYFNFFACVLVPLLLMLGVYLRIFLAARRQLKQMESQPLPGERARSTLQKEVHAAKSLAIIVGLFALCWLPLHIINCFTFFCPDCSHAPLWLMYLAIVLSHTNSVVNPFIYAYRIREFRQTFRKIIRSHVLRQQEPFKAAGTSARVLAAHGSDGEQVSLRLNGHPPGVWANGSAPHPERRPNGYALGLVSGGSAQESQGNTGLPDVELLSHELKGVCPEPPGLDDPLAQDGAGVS

In the case of `Cc1ccc(-c2nc(N)nc3c(Cc4cccc(CO[C@H]5CCN(C)C5)n4)cnn23)o1` [Example 15, (S)-4-(5-Methylfuran-2-yl)-8-((6-(((1-methylpyrrolidin-3-yl)oxy)methyl)pyridin-2-yl)methyl) pyrazolo[1,5-a][1,3,5]triazin-2-amine], in assay [1], the IC50 stood at 1.83 nM. In addition, in assay [2], the IC50 stood at 165 nM and the “IC50 ratio (A1R/A2aR)” value is 90^. In assay [3], the IC50 was determined as 8970 nM and the “IC50 ratio (A3R/A2aR)” value is listed as >10^3.

`Cc1ccc(-c2nc(N)nc3c(Nc4cccc(CN5CC6(COC6)C5)n4)cnn23)o1` [Example 32, N^8-(6-((2-Oxa-6-azaspiro[3.3]heptan-6-yl)methyl)pyridin-2-yl)-4-(5-methylfuran-2-yl)pyrazolo[1,5-a][1,3,5]triazine-2,8-diamine] gave an IC50 in assay [1] of 3.74 nM. Further, in assay [2], half-maximal inhibition (IC50) was put at 287 nM and the “IC50 ratio (A1R/A2aR)” value is 78^. Moreover, in assay [3], the IC50 worked out at 5610 nM and the “IC50 ratio (A3R/A2aR)” value is recorded as >10^3.

With `Cc1ccc(-c2nc(N)nc3c(Nc4cccc(CO[C@@H]5CCOC5)n4)cnn23)o1` [Example 21, (R)-4-(5-Methylfuran-2-yl)-N^8-(6-(((tetrahydrofuran-3-yl)oxy)methyl)pyridin-2-yl)pyrazolo[1,5-a][1,3,5]triazine-2,8-diamine], inhibition in assay [1] was half-maximal at 0.4 nM (IC50). Further, in assay [2], it took 609 nM to reach half-maximal inhibition (IC50) and the “IC50 ratio (A1R/A2aR)” value was >10^3. In assay [3], the 50% inhibitory concentration (IC50) is 1700 nM and the “IC50 ratio (A3R/A2aR)” value is >10^3.

For the compound `Nc1nc(-c2ccco2)n2ncc(Cc3cccc(F)c3)c2n1` [Example 34, 8-(3-Fluorobenzyl)-4-(furan-2-yl)pyrazolo[1,5-a][1,3,5]triazin-2-amine], in assay [1], the concentration for half-maximal inhibition (IC50) worked out at 4.64 nM.

With `Cc1ccc(-c2nc(N)nc3c(Cc4ccccc4F)cnn23)o1` [Example 4, 8-(2-Fluorobenzyl)-4-(5-methylfuran-2-yl)pyrazolo[1,5-a][1,3,5]triazin-2-amine], the figures for the 50% inhibitory concentration (IC50) in assay [1] and in assay [3] were 0.14 nM and over 10000 nM, respectively. The “IC50 ratio (A3R/A2aR)” value in assay [3] was >10^4.

In turn, `Cc1ccc(-c2nc(N)nc3c(Cc4cccc(CN5CC6COCC6C5)n4)cnn23)o1` (stereo not shown) [Example 9, 4-(5-Methylfuran-2-yl)-8-((6-((tetrahydro-1H-furo[3,4-c]pyrrol-5(3H)-yl)methyl)pyridin-2-yl)methyl)pyrazolo[1,5-a][1,3,5]triazin-2-amine] yielded a half-maximal inhibitory concentration (IC50) in assay [1] of 1.64 nM. Moreover, in assay [2], the IC50 turned out to be 483 nM and the “IC50 ratio (A1R/A2aR)” value is on record as 294^. In addition, in assay [3], the concentration for half-maximal inhibition (IC50) came to 3370 nM and the “IC50 ratio (A3R/A2aR)” value is listed as >10^3.

Turning to `Cc1ccc(-c2nc(N)nc3c(Cc4cccc(CN5CC6(COC6)C5)n4)cnn23)o1` [Example 7, 8-((6-((2-Oxa-6-azaspiro[3.3]heptan-6-yl)methyl)pyridin-2-yl)methyl)-4-(5-methylfuran-2-yl) pyrazolo[1,5-a][1,3,5]triazin-2-amine], the IC50 in assay [1] was determined as 1.18 nM. In assay [2], the IC50 amounted to 340 nM and the “IC50 ratio (A1R/A2aR)” value was 288^. Also, in assay [3], the IC50 came out at 7370 nM and the “IC50 ratio (A3R/A2aR)” value is >10^3.

For the compound `Cc1ccc(-c2nc(N)nc3c(Nc4ccccc4F)cnn23)o1` [Example 31, N^8-(2-Fluorophenyl)-4-(5-methylfuran-2-yl)pyrazolo[1,5-a][1,3,5]triazine-2,8-diamine], half-maximal inhibition in assay [1] (IC50) was put at 3.53 nM.

As for `CCCc1cccc(Cc2cnn3c(-c4ccc(C)o4)nc(N)nc23)n1` [Example 20, 4-(5-Methylfuran-2-yl)-8-((6-propylpyridin-2-yl)methyl)pyrazolo[1,5-a][1,3,5]triazin-2-amine], in assay [1], the IC50 was found to be 0.09 nM. In assay [3], the IC50 is 280 nM and the “IC50 ratio (A3R/A2aR)” value is on record as >10^3.

In assay [1], `Cc1ccc(-c2nc(N)nc3c(Cc4cccc(COCC5CC5)n4)cnn23)o1` [Example 17, 8-((6-((Cyclopropylmethoxy)methyl)pyridin-2-yl)methyl)-4-(5-methylfuran-2-yl)pyrazolo[1,5-a][1,3,5]triazin-2-amine] displayed an IC50 of 0.72 nM. Besides, in assay [3], half-maximal inhibition (IC50) was put at 1390 nM and the “IC50 ratio (A3R/A2aR)” value is >10^3.

In assay [1], `Cc1ccc(-c2nc(N)nc3c(Cc4cccc(COS(N)(=O)=O)n4)cnn23)o1` [Example 11, (6-((2-Amino-4-(5-methylfuran-2-yl)pyrazolo[1,5-a][1,3,5]triazin-8-yl)methyl)pyridin-2-yl)methyl sulfamate] had an IC50 of 1.86 nM. Further, in assay [2], the IC50 stood at 410 nM and the “IC50 ratio (A1R/A2aR)” value is 220^.

As to `Cc1ccc(-c2nc(N)nc3c(Oc4ccccn4)cnn23)o1` [Example 23, 4-(5-Methylfuran-2-yl)-8-(pyridin-2-yloxy)pyrazolo[1,5-a][1,3,5]triazin-2-amine], it took 0.58 nM to reach half-maximal inhibition in assay [1] (IC50).

In assay [1], `Nc1nc(-c2ccco2)n2ncc(Cc3ccccc3)c2n1` [Example 33, 8-Benzyl-4-(furan-2-yl)pyrazolo[1,5-a][1,3,5]triazin-2-amine] came in with a half-maximal inhibitory concentration (IC50) of 4.14 nM. Besides, in assay [2], the IC50 came out at 565 nM and the “IC50 ratio (A1R/A2aR)” value is listed as 136^.
